The nature of data set [1]: DPPH antioxidant activity assay. Here is the method: To evaluate four synthesized compounds and Trolox (as a positive control), a 1 mg/mL concentration in methanol was first made from phenyl alcohol. The prepared solution was produced in concentrations of 1, 2, 3, 5, 7, 10, 20, 30, 50, and 80 µg/mL. The DPPH reagent was then diluted in 0.002% w/v methanol and combined in a […] ratio with the previously produced working concentrations. A blank solution of 100% methanol was used. All solutions were incubated at room temperature for 30 min in a dark environment. Their absorbance values were then determined using a UV-visible spectrophotometer set at a wavelength of 517 nm. The antioxidant capacity of each chemical compound fraction and Trolox were calculated using the following formula:% inhibition = ((Abs blank − Abs Sample)/Abs Blank) × 100 where:
Abs blank: Absorbance value of the control reaction containing all reagents except the synthesized compound.
Abs sample: The absorbance value of the synthesized compound [48].
Background: The DPPH test is a chemical assay of radical scavenging.

On the set-up of data set [2]: method as in PMID 35200663. To be noted: cell line not given; cited from earlier work.
The test system of a further data set is HeLa cells. On the set-up: method as in PMID 31200286. To be noted: same cell line; read-out: IC50 against HeLa cells, positive control; cited from earlier work.

Each structure is given as a SMILES string.

In the case of `Cc1c(C)c2c(c(C)c1O)CCC(C)(C(=O)O)O2` (stereo not drawn) [Trolox, reference compound], the “% inhibition of DPPH radical (radical scavenging)” value is given as 30.5 ± 2.2% in data set [1] (1 µg/mL); 23.6 ± 1.3% in data set [1] (2 µg/mL); 61.4 ± 5.3% in data set [1] (3 µg/mL); 90.7± 11.3% in data set [1] (5 µg/mL); 95.3 ± 10.7% in data set [1] (7 µg/mL); 95.9± 9.5% in data set [1] (10 µg/mL). Further, the “% inhibition of DPPH radical (radical scavenging)” value in data set [1] (20 µg/mL) worked out at 96.7 ± 12.5%; in data set [1] (30 µg/mL), 97.2 ± 8.5%; in data set [1] (50 µg/mL) it was 98.1± 9.2%; in data set [1] (80 µg/mL) it was 98.9± 11.8%.

`C=C1C(=O)O[C@H]2/C=C(\C)CC/C=C(\C)CCC(=O)[C@]3(C)O[C@@H]3C[C@@H]12` [crassocolide N]: the “cytotoxicity IC50” value in data set [2] is 4.7 µg/mL.

By IC50 is commonly meant the midpoint of a concentration-inhibition curve. `COc1cccc2c1C(=O)c1c(O)c3c(c(O)c1C2=O)C[C@@](O)(C(=O)CO)C[C@@H]3O[C@H]1C[C@H](N)[C@H](O)[C@H](C)O1` [doxorubicin]: in the data set with HeLa cells, the IC50 was 1100 ± 15 nM.

Source of the values: paper PMC12030165, “Bioactivity of Synthesized Trifluoromethyl Thioxanthone Analogues” (Pharmaceuticals, 2025).
